`Nc1cc2ccccc2cc1N` showed a logP of 1.54.

As for `Cc1cc(N)c([N+](=O)[O-])cc1C`, the logP came to 2.07.

As to `O=[N+]([O-])c1ccc2nc[nH]c2c1`, the log partition coefficient (logP) amounted to 1.5.

With `Nc1ccc2[nH]ccc2c1`, the logP came to 1.13.

Molecule `O=[N+]([O-])c1ccc2nn[nH]c2c1` displayed a lipophilicity (logP) of 1.95.

Consider `Nc1cccc2cccc(N)c12`, for which the logP was determined as 1.78.

Consider `Nc1cccc2ncccc12`, for which the logP amounted to 1.27.

With `Cc1ccc(N)c([N+](=O)[O-])c1`, the logP was 1.82.

In the case of `Nc1cccc2c(N)cccc12`, the log partition coefficient (logP) came out at 0.89.

With `Nc1ccc2[nH]ncc2c1`, the log partition coefficient (logP) was determined as 0.65.

Regarding `Nc1nc2ccccc2[nH]1`, the log partition coefficient (logP) turned out to be 1.34.

With `O=[N+]([O-])c1ccncc1`, the lipophilicity (logP) stood at 0.6.

The record behind these values is the SangsterLogP compilation.
